Our source for the Ki values is US20060159617A1, “Small technetium-99m and rhenium labeled agents and methods for imaging tissues, organs and tumors” (priority 2002, published 2006).

For one experiment, the target named is T1, σ1 receptor (Cavia porcellus, UniProt Q60492).
T1 construct: The membranes were prepared from guinea pig brain (minus cerebellum) as described above; from tissue; host or cells: guinea pig brain (minus cerebellum) membranes
Kind of experiment: Sigma-1 receptor competition binding assay with [3H]-(+)-pentazocine. Further details: species or system guinea pig. As to conditions: apparent Ki (Cheng-Prusoff), brain membranes. As for the experimental part: The in vitro σ1 receptor binding affinities of rhenium coordinated complexes were determined in a competition assay using […] and high-affinity σ1 ligand [3H]-(+)-pentazocine (28 Ci/mmol, NEN Life Science Inc., Cambridge, Mass.). See, Mol. Neuropharmacol. 1993, 3, 117-126.
The membranes were prepared from guinea pig brain (minus cerebellum) as described above and stored at −70 ° C. Twelve concentrations of the nonradioactive rhenium complexes ranging from 1×10^−11 to 1×10^−3 and protein samples (0.15 mg of membrane protein) were incubated with […] [3H]-(+)-pentazocine in a total volume of 0.25 mL of Tris-HCl (50 mM, pH 8.0). Incubations were carried out for 120 min at 25° C. All assays were terminated by dilution with 5 mL of ice-cold Tris-HCl (10 mM), pH 8.0, and solution were filtered through glass-fiber filters (Whatman GF/F; presoaked in 0.5% polyethyleneimine for 30 min at 25° C.). Filters were then washed three times with 5 mL of ice-cold Tris-HCl (50 mM, pH 8.0), and counted in Hionic-Fluor cocktail (Packard, Groningen, the Netherlands). The corresponding IC50 values were determined with Origin 6.0 software (OriginLab, Northampton, Mass.) and were used for the calculation of the apparent Ki values with the Cheng-Prusoff equation. See, Biochem. Pharmacol. 1973, 22, 3099-3108.

A further experiment addresses T2, 5HT1A receptor (Rattus norvegicus, UniProt P19327).
T2 construct: The brains were rapidly removed, and hippocampus, frontal cortex, hypothalamus, and striatum were hand-dissected on ice; from tissue; host or cells: male Sprague-Dawley rat hippocampus membranes
T2 sequence (P19327 1-422): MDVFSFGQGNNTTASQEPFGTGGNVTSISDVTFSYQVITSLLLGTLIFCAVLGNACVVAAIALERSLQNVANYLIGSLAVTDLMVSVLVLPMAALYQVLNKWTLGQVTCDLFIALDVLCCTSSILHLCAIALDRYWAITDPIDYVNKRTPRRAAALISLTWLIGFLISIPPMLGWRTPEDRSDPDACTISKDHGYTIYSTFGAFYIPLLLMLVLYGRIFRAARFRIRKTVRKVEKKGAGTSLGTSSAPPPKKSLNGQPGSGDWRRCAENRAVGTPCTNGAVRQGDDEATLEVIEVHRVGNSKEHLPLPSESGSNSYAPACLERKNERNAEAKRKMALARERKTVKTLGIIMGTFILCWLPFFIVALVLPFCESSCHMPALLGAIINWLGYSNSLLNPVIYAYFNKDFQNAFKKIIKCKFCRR
The experiment in a line: 5HT1A receptor competition binding assay with [3H]-8-OH-DPAT. As to conditions: apparent Ki, rat hippocampus. How it is done: The in vitro 5HT1A binding affinities of rhenium coordinated complexes were determined in a competition assay using rat hippocampus and high-affinity 5HT1A-ligand [^3H]-8-OH-DPAT (135 Ci/mmol, NEN Life Science Inc., Cambridge, Mass.). See, Brain Res. 1995, 673, 217-225.
Male Sprague-Dawley rats (weighing 150-170 g) were sacrificed using anesthesia agent isoflurane. The brains were rapidly removed, and hippocampus, frontal cortex, hypothalamus, and striatum were hand-dissected on ice and stored at −70° C. Tissue was thawed at room temperature and homogenized using a Brinkmann Polytron tissue disrupter in 50 volumes (wt/vol) of ice-cold 50 mM Tris-HCl buffer (pH 7.4). The suspension was centrifuged twice at 27,000 g for 20 min at 4° C. The membrane pellets were resuspended in 50 volumes of (wt/vol) Tris-HCl buffer and incubated at 37° C. for 20 min in a water bath, before a final centrifugation step (27,000 g; 20 min; 4° C.). The final tissue pellets were stored at −70° C. until assayed.
(§1) Twelve concentrations of the nonradioactive rhenium complexes ranging from 1×10^−11 to 1×10^−4 and protein samples (0.15 mg of membrane protein) were incubated with 1.5 nM [^3H]-8-OH-DPAT in a total volume of 0.25 mL of Tris-HCl (50 mM, pH 7.4, 10 mM MgSO4). Incubations were carried out for 60 min at 25° C. All assays were terminated by dilution with 5 mL of ice-cold Tris-HCl (10 mM), pH 7.4, and solution were filtered through glass-fiber filters (Whatman GF/F; presoaked in 0.5% polyethyleneimine for 30 min at 25° C.). Filters were then washed three times with 5 mL of ice-cold Tris-HCl (50 mM, pH 7.4), and counted in Hionic-Fluor cocktail (Packard, Groningen, the Netherlands). The corresponding IC50 values were determined with Origin 6.0 software (OriginLab, Northampton, Mass.) and were used for the calculation of the apparent Ki values with the Cheng-Prusoff equation. See, Biochem. Pharmacol. 1973, 22, 3099-3108.

The target in a further experiment is α1 receptor. Kind of experiment: Alpha-1 receptor competition binding assay with [3H]-Prazosin. As to conditions: apparent Ki, rat frontal cortex. How it is done:
The in vitro α1 receptor binding affinities of rhenium coordinated complexes were determined in a competition assay using rat frontal cortex and high-affinity α1 ligand [^3H]-Prazosin (80 Ci/mmol, NEN Life Science Inc., Cambridge, Mass.). See, Eur. J. Nucl. Med. 2002, 29, 82-87.
as §1, with “The frontal cortex of rat brain was prepared as described above and store at −70° C. until used in the binding assays. Ten” for “Twelve”, “1×10^−10” for “1×10^−11”, “1×10^−3” for “1×10^−4”, “[^3H]-Prazosin” for “[^3H]-8-OH-DPAT”, “Biocheni.” for “Biochem.”

Each structure is given as a SMILES string.

T1 sequence (Q60492 whole entry): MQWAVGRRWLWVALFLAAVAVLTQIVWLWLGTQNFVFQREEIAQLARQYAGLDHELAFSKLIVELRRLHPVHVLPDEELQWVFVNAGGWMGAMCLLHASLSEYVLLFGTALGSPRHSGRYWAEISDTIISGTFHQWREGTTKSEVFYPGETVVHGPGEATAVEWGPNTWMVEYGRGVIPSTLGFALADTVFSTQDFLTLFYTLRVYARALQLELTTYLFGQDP

`O=C1CN(CCCN2CCC(Cc3ccccc3)CC2)CC[S][Re]2(=[O])[S]CC[N]12` (stereo not drawn) [Re-15]: the results for the Ki on σ1 receptor, at 5HT1A receptor and on α1 receptor were 547 nM, 589 ± 70 nM and 322 ± 61 nM, respectively.
Take `COc1ccccc1C1CCN(CCCN2CC[S][Re]3(=[O])[S]CC[N]3C(=O)C2)CC1` (stereo not drawn) [Re-16]: the figures for the Ki at σ1 receptor, at 5HT1A receptor and on α1 receptor were 4830 nM, 4.5 ± 0.4 nM and 48 ± 9 nM, respectively.
